The source of these data is patent US8946201B2, “Methods for inhibiting TGF-β” (Saint Louis University, priority 2007, dated 2015).

The subject of assay [1] is PAI-1 expression. Description: TGF-β1-induced PAI-1 expression, Northern blot, BAEC. The class given is cell-based, bovine. Conditions: 50 μg/ml, TGF-β1 2 to 100 pM. As to the method:
(A, B, C, D, E, F) Cells were treated with 50 μg/ml cholesterol (A, B, C, D) and 50 μg/ml LDL (D) at 37° C. for 1 hr or with 1 μM fluvastatin or lovastatin (E) or several concentrations of fluvastatin (F) at 37° C. for 16 hr and then further incubated with increasing concentrations (as indicated) of TGF-β1 (A, B, C, E) or 50 pM TGF-β1 (D,F) for 2 hr. Northern blot analysis of PAI-1 and G3PDH was performed. A representative of a total of three analyses is shown (a). The relative intensities of the transcripts were quantified with a PhosphoImager. The ratio of the relative intensities of PAI-1 and G3PDH transcripts in cells treated without TGF-β1 and cholesterol, LDL or statins on the blot was taken as 1 fold or 100% of PAI-1 expression. The quantitative data from three independent analyses is shown (b). […] (G) Mv1Lu cells stably expressing a luciferase reporter gene driven by the PAI-1 promoter (MLECs-clone 32) were treated with increasing concentrations (as indicated) of cholesterol at 37 EC for 1 hr (a) or with 1 μM lovastatin at 37° C. for 16 hr (b) and then further incubated with 50 pM TGF-β for 7 hr. The luciferase activity in cells treated without cholesterol was taken as 100% (a). […] (H) Cells were incubated with 0.0625 and 0.125 pM TGF-β1 in the presence of increasing concentrations of cholesterol, as indicated. […] The experiments were carried out in triplicate.

In assay [2] the test system is Mv1Lu cells. Kind of assay: [Methyl-3H]thymidine incorporation (DNA synthesis), Mv1Lu cells. The class given is cell-based, mink. Here is the method: (A, B, C, D, E, F) Cells were treated with 50 μg/ml cholesterol (A, B, C, D) and 50 μg/ml LDL (D) at 37° C. for 1 hr or with 1 μM fluvastatin or lovastatin (E) or several concentrations of fluvastatin (F) at 37° C. for 16 hr and then further incubated with increasing concentrations (as indicated) of TGF-β1 (A, B, C, E) or 50 pM TGF-β1 (D,F) for 2 hr. Northern blot analysis of PAI-1 and G3PDH was performed. A representative of a total of three analyses is shown (a). The relative intensities of the transcripts were quantified with a PhosphoImager. The ratio of the relative intensities of PAI-1 and G3PDH transcripts in cells treated without TGF-β1 and cholesterol, LDL or statins on the blot was taken as 1 fold or 100% of PAI-1 expression. The quantitative data from three independent analyses is shown (b). […] (G) Mv1Lu cells stably expressing a luciferase reporter gene driven by the PAI-1 promoter (MLECs-clone 32) were treated with increasing concentrations (as indicated) of cholesterol at 37 EC for 1 hr (a) or with 1 μM lovastatin at 37° C. for 16 hr (b) and then further incubated with 50 pM TGF-β for 7 hr. The luciferase activity in cells treated without cholesterol was taken as 100% (a). […] (H) Cells were incubated with 0.0625 and 0.125 pM TGF-β1 in the presence of increasing concentrations of cholesterol, as indicated. After 18 hr at 37° C., cell growth was determined by measurement of [^3H-methyl]thymidine incorporation into cellular DNA (a). The [^3H-methyl]thymidine incorporation in cells treated with vehicle only (T1); with TGF-β1 (T2); with cholesterol (T3); with cholesterol and TGF-β1 (T4) was measured. T1 was taken as 100%. The degree (%) of cholesterol-mediated reversal of TGF-β1 growth inhibition was estimated by the equation: % reversal=[1−(T3−T4/T1−T2)]×100 Cholesterol appeared to reverse TGF-β1 growth inhibition in a dose-dependent manner (b). The experiments were carried out in triplicate.
The growth of cholesterol-treated cells was determined by measurement of [methyl-^3H]thymidine incorporation into cellular DNA as described (30). Briefly, cells grown near confluence on 48-well clustered dishes were treated with several concentrations of cholesterol at 37° C. for 1 hr in serum-free DMEM. The final concentration of ethanol (the vehicle for cholesterol) in the medium was 0.2%. […] The [methyl-^3H]thymidine incorporation into cellular DNA was then determined by incubation of cells with [methyl-^3H]thymidine at 37° C. for 2 hr in DMEM containing 0.1% fetal calf serum. […]
Another prominent biological activity of TGF-β is growth inhibition of many different cell types. […] DNA synthesis was then determined by measurement of [^3H-methyl]thymidine incorporation into cellular DNA (FIG. 2Ha). […]

Assay [3] concerns TβR-I and TβR-II. Description: 125I-TGF-β1 affinity labeling, NRK cells. Type of assay: cell-based, rat. Conditions: 1 hr. As to the method: (B, C, D, E) Cells were treated with increasing concentrations of cholesterol in the presence (C) and absence (B, D, E) of 0.2% β-CD, as indicated. After 1 hr at 37° C., ^125I-TGF-β1 affinity labeling of TβR-I and TβR-II in cells was performed at 0° C. ^125I-TGF-β1 affinity-labeled TβR-I and TβR-II were analyzed by 7.5% SDS-PAGE and autoradiography or quantified with a PhosphoImager. A representative of a total of three analyses is shown (top). The bracket indicates the locations of ^125I-TGF-β affinity-labeled TβR-I and TβR-II. The relative intensities of ^125I-TGF-β1 affinity-labeled TβR-I and TβR-II in cells treated without cholesterol were taken as 100%. The quantitative data from three analyses is shown (bottom).
After cross-linking, cell lysates were analyzed by 7.5% SDS-PAGE and autoradiography or quantified by a PhosphoImager. For all experiments, cholesterol or cholesterol derivatives were prepared as the stock solution with a concentration of 25 mg/ml in ethanol. The final concentration of ethanol in the medium was 0.2% (by vol.).

Each structure is given as a SMILES string.

Take `CC(C)CCC[C@@H](C)[C@H]1CC[C@H]2[C@@H]3CC=C4C[C@@H](O)CC[C@]4(C)[C@H]3CC[C@]12C` [cholesterol]: in assay [1], the “suppression of TGF-β1-stimulated PAI-1 expression” value is listed as 50-80%. Besides, the “reversal of DNA synthesis inhibition induced by TGF-β1” value in assay [2] (8 μg/ml, 0.0625 and 0.125 pM TGF-β1, 18 hr) was “almost completely reversed”. Besides, the “effect on DNA synthesis, alone” value in assay [2] (6 and 8 μg/ml, without TGF-β1) is reported as “inhibited”. The “increase of 125I-TGF-β1 binding to TβR-I” value in assay [3] (50 μg/ml) is on record as roughly 5.7 fold. Further, in assay [3] (50 μg/ml, 2.0 untreated), the “ratio of TβR-II/TβR-I” value is reported as 0.35. In addition, the “effect on binding of 125I-TGF-β1 to TβR-II” value in assay [3] (increasing concentrations) is given as “did not significant alter”.
